{"source": "paper PMC12300041", "about": "“Tricyclic Isatin Derivatives as Anti-Inflammatory Compounds with High Kinase Binding Affinity” (Molecules, 2025)", "experiment_in_all_cases": "KINOMEscan", "assay_type_in_all_cases": "binding", "key": {"ABL1 (T315I)-P": {"molecular_target": "T1, ABL1 (T315I)-P (Homo sapiens, UniProt P00519, T315I)", "T1 construct": "purchased Eurofins DiscoverX KINOMEscan", "in_short": "(§1)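 Compound and kinase were incubated at room temperature for 1 h, the free kinase fraction was captured with an immobilized affinity ligand, and capture was quantified by quantitative PCR; Kd values used a 12-point half-log series up to 33 μM.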"}, "AMPK-α1": {"molecular_target": "T2, AMPK-α1 (Homo sapiens, UniProt Q13131)", "T2 construct": "purchased Eurofins DiscoverX KINOMEscan", "in_short": "(§2)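 Measured as Kd. Free kinase after 1 h at room temperature was captured on immobilized ligand and detected by qPCR; compound titrated in 12 half-log steps from 33 μM.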"}, "ASK1": {"molecular_target": "T3, ASK1 (Homo sapiens, UniProt Q99683)", "T3 construct": "purchased Eurofins DiscoverX KINOMEscan", "in_short": "as §2"}, "CAMK2B": {"molecular_target": "T4, CAMK2B (Homo sapiens, UniProt Q13554)", "T4 construct": "purchased Eurofins DiscoverX KINOMEscan", "in_short": "as §1"}, "CAMKK1": {"molecular_target": "T5, CAMKK1 (Homo sapiens, UniProt Q8N5S9)", "T5 construct": "purchased Eurofins DiscoverX KINOMEscan", "in_short": "as §1"}, "CDK9": {"molecular_target": "T6, CDK9 (Homo sapiens, UniProt P50750)", "T6 construct": "purchased Eurofins DiscoverX KINOMEscan", "in_short": "as §1"}, "CDKL3": {"molecular_target": "T7, CDKL3 (Homo sapiens, UniProt Q8IVW4)", "T7 construct": "purchased Eurofins DiscoverX KINOMEscan", "in_short": "as §1"}, "CSNK1D": {"molecular_target": "T8, CSNK1D (Homo sapiens, UniProt P48730)", "T8 construct": "purchased Eurofins DiscoverX KINOMEscan", "in_short": "as §2"}, "EGFR (L861Q)": {"molecular_target": "T9, EGFR (L861Q) (Homo sapiens, UniProt P00533, L861Q)", "T9 construct": "purchased Eurofins DiscoverX KINOMEscan", "T9 sequence (P00533 25-1210 L861Q)": "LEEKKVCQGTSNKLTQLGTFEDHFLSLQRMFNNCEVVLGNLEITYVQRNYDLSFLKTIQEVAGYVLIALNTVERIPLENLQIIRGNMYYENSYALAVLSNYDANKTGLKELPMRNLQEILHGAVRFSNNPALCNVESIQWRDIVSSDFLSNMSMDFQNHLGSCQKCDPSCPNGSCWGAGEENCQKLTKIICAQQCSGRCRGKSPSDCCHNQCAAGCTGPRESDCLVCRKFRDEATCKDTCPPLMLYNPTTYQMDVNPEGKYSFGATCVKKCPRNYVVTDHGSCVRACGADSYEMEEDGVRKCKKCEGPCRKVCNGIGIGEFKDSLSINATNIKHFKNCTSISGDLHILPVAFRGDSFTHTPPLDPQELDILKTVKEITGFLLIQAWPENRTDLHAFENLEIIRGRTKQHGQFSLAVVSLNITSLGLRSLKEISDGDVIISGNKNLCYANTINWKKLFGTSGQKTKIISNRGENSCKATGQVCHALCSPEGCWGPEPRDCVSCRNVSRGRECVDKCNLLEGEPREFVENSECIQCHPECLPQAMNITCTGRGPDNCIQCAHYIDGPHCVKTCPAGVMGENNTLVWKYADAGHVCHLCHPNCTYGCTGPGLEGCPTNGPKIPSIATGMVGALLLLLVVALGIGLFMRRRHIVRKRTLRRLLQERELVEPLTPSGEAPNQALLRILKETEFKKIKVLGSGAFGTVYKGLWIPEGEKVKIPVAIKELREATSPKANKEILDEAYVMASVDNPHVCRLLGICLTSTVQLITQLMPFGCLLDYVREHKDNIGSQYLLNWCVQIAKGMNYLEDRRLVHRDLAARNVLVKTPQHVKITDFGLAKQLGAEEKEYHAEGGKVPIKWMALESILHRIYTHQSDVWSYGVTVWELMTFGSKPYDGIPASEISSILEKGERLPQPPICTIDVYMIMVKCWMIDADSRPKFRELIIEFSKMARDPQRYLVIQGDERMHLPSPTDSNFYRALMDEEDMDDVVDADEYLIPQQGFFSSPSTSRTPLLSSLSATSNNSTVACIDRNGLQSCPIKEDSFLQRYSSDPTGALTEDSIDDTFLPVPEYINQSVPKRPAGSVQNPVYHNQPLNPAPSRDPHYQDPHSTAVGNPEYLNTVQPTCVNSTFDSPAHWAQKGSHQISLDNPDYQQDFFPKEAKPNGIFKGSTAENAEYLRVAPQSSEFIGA", "in_short": "as §1"}, "EGFR (T790M)": {"molecular_target": "T10, EGFR (T790M) (Homo sapiens, UniProt P00533, T790M)", "T10 construct": "purchased Eurofins DiscoverX KINOMEscan", "in_short": "as §2"}, "EPHA2": {"molecular_target": "T11, EPHA2 (Homo sapiens, UniProt P29317)", "T11 construct": "purchased Eurofins DiscoverX KINOMEscan", "in_short": "as §1"}, "EPHA5": {"molecular_target": "T12, EPHA5 (Homo sapiens, UniProt P54756)", "T12 construct": "purchased Eurofins DiscoverX KINOMEscan", "T12 sequence (P54756 25-1037)": "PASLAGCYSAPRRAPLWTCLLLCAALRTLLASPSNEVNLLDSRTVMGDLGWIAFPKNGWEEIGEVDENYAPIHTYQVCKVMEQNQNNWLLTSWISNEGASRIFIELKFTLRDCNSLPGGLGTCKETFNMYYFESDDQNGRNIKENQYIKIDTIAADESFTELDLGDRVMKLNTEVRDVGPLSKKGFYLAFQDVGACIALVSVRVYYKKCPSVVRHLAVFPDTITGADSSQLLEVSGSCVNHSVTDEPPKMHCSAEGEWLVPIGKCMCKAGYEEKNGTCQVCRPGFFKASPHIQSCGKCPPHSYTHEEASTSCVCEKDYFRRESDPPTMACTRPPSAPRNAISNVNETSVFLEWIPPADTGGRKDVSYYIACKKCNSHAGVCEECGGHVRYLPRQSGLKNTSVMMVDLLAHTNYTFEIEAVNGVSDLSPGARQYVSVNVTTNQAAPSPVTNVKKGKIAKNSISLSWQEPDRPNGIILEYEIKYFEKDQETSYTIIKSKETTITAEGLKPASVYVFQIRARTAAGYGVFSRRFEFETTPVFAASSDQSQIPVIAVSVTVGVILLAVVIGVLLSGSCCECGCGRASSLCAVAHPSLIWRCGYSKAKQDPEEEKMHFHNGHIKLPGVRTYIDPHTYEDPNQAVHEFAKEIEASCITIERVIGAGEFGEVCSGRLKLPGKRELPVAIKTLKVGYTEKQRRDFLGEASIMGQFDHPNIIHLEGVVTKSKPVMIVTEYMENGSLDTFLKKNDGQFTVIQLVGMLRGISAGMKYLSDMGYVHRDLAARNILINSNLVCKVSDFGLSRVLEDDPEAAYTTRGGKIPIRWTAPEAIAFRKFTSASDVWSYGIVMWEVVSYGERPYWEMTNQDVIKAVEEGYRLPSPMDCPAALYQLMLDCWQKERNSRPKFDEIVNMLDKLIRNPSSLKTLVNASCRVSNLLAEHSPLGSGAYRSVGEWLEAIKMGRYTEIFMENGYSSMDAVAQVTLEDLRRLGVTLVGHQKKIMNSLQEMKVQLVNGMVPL", "in_short": "as §2"}, "FGFR3": {"molecular_target": "T13, FGFR3 (Homo sapiens, UniProt P22607)", "T13 construct": "purchased Eurofins DiscoverX KINOMEscan", "in_short": "as §2"}, "FYN": {"molecular_target": "T14, FYN (Homo sapiens, UniProt P06241)", "T14 construct": "purchased Eurofins DiscoverX KINOMEscan", "in_short": "as §1"}, "HUNK": {"molecular_target": "T15, HUNK (Homo sapiens, UniProt P57058)", "T15 construct": "purchased Eurofins DiscoverX KINOMEscan", "in_short": "as §2"}, "JAK3 (JH1domain-cat.)": {"molecular_target": "T16, JAK3 (JH1domain-cat.) (Homo sapiens, UniProt P52333)", "T16 construct": "JAK3 (JH1domain-cat.); purchased Eurofins DiscoverX KINOMEscan", "in_short": "as §1"}, "KIT": {"molecular_target": "T17, KIT (Homo sapiens, UniProt P10721)", "T17 construct": "purchased Eurofins DiscoverX KINOMEscan", "T17 sequence (P10721 26-976)": "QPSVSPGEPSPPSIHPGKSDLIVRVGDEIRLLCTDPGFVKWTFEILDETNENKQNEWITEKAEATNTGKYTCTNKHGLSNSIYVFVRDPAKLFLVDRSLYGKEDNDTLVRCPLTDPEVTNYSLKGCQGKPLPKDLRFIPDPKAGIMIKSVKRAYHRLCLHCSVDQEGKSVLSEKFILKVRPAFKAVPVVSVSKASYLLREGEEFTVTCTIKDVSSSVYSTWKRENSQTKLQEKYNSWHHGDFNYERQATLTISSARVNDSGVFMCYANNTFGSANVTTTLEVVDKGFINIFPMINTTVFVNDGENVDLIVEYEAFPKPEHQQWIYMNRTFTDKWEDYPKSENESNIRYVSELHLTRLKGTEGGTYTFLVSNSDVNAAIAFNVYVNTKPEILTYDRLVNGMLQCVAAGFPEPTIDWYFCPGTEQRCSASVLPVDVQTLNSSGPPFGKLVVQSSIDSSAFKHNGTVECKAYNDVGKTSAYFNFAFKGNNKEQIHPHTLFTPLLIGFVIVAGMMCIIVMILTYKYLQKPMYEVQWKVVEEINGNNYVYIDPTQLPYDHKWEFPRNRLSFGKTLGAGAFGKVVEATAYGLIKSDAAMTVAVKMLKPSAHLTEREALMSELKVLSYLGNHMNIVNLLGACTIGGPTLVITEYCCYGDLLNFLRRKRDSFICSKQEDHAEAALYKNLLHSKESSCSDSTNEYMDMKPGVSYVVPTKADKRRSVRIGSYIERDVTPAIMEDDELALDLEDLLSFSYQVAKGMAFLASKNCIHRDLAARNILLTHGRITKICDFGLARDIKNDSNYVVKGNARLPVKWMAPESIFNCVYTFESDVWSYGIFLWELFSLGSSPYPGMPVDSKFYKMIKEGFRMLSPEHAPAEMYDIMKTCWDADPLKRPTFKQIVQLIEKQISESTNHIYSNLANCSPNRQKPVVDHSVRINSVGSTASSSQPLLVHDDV", "in_short": "as §1"}, "KIT (V559D)": {"molecular_target": "T18, KIT (V559D) (Homo sapiens, UniProt P10721, V559D)", "T18 construct": "purchased Eurofins DiscoverX KINOMEscan", "T18 sequence (P10721 26-976 V559D)": "as the sequence (P10721 26-976) above, with V534D counted along it", "in_short": "as §1"}, "LRRK2": {"molecular_target": "T19, LRRK2 (Homo sapiens, UniProt Q5S007)", "T19 construct": "purchased Eurofins DiscoverX KINOMEscan", "in_short": "as §2"}, "LTK": {"molecular_target": "T20, LTK (Homo sapiens, UniProt P29376)", "T20 construct": "purchased Eurofins DiscoverX KINOMEscan", "T20 sequence (P29376 17-864)": "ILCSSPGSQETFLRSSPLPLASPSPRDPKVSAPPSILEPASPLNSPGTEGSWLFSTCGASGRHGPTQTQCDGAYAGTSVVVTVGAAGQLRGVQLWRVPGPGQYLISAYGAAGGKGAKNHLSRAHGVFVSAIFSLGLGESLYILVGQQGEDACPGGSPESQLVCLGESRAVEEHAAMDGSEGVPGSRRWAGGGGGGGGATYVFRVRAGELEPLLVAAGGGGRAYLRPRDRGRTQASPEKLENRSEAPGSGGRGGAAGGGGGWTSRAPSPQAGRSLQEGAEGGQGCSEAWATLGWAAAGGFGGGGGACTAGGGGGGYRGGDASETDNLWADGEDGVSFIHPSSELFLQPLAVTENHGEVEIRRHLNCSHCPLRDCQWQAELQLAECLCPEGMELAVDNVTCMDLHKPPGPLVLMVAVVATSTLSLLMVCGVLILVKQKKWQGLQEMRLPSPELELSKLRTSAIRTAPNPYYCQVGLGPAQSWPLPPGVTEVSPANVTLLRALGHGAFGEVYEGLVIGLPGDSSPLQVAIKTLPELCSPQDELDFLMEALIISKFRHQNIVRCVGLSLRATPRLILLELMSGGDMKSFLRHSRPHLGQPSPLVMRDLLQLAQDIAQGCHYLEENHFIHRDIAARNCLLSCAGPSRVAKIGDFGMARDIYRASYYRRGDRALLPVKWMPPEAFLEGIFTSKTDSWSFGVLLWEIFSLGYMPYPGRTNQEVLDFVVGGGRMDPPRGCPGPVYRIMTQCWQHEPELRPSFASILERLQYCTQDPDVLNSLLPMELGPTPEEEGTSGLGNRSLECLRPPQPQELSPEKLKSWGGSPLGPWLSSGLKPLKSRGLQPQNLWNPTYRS", "in_short": "as §1"}, "LZK": {"molecular_target": "T21, LZK (Homo sapiens, UniProt O43283)", "T21 construct": "purchased Eurofins DiscoverX KINOMEscan", "in_short": "as §1"}, "MAP4K5": {"molecular_target": "T22, MAP4K5 (Homo sapiens, UniProt Q9Y4K4)", "T22 construct": "purchased Eurofins DiscoverX KINOMEscan", "in_short": "as §1"}, "MELK": {"molecular_target": "T23, MELK (Homo sapiens, UniProt Q14680)", "T23 construct": "purchased Eurofins DiscoverX KINOMEscan", "in_short": "as §1"}, "MLK3": {"molecular_target": "T24, MLK3 (Homo sapiens, UniProt Q16584)", "T24 construct": "purchased Eurofins DiscoverX KINOMEscan", "in_short": "as §2"}, "MYLK": {"molecular_target": "T25, MYLK (Homo sapiens, UniProt Q15746)", "T25 construct": "purchased Eurofins DiscoverX KINOMEscan", "in_short": "as §1"}, "PIK3CA (E545A)": {"molecular_target": "T26, PIK3CA (E545A) (Homo sapiens, UniProt P42336, E545A)", "T26 construct": "purchased Eurofins DiscoverX KINOMEscan", "in_short": "as §1"}, "PIK3CA (Q546K)": {"molecular_target": "T27, PIK3CA (Q546K) (Homo sapiens, UniProt P42336, Q546K)", "T27 construct": "purchased Eurofins DiscoverX KINOMEscan", "in_short": "as §1"}, "PRKCD": {"molecular_target": "T28, PRKCD (Homo sapiens, UniProt Q05655)", "T28 construct": "purchased Eurofins DiscoverX KINOMEscan", "in_short": "as §1"}, "PRKCI": {"molecular_target": "T29, PRKCI (Homo sapiens, UniProt P41743)", "T29 construct": "purchased Eurofins DiscoverX KINOMEscan", "in_short": "as §1"}, "[1]": {"molecular_target": "T30, RPS6KA4 (Kin. Dom.1-N-term.) (Homo sapiens, UniProt O75676)", "T30 construct": "RPS6KA4 (Kin. Dom.1-N-term.); purchased Eurofins DiscoverX KINOMEscan", "in_short": "as §2"}, "SLK": {"molecular_target": "T31, SLK (Homo sapiens, UniProt Q9H2G2)", "T31 construct": "purchased Eurofins DiscoverX KINOMEscan", "in_short": "as §1"}, "SRPK3": {"molecular_target": "T32, SRPK3 (Homo sapiens, UniProt Q9UPE1)", "T32 construct": "purchased Eurofins DiscoverX KINOMEscan", "in_short": "as §1"}, "STK16": {"molecular_target": "T33, STK16 (Homo sapiens, UniProt O75716)", "T33 construct": "purchased Eurofins DiscoverX KINOMEscan", "in_short": "as §1"}, "TIE2": {"molecular_target": "T34, TIE2 (Homo sapiens, UniProt Q02763)", "T34 construct": "purchased Eurofins DiscoverX KINOMEscan", "in_short": "as §1"}, "TLK2": {"molecular_target": "T35, TLK2 (Homo sapiens, UniProt Q86UE8)", "T35 construct": "purchased Eurofins DiscoverX KINOMEscan", "in_short": "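Quantitative PCR measured kinase retained on an immobilized affinity ligand, i.e. kinase not bound by test compound, after 1 h binding at room temperature. Kd came from 12 half-log concentrations up to 33 μM.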"}, "TRKC": {"molecular_target": "T36, TRKC (Homo sapiens, UniProt Q16288)", "T36 construct": "purchased Eurofins DiscoverX KINOMEscan", "T36 sequence (Q16288 32-839)": "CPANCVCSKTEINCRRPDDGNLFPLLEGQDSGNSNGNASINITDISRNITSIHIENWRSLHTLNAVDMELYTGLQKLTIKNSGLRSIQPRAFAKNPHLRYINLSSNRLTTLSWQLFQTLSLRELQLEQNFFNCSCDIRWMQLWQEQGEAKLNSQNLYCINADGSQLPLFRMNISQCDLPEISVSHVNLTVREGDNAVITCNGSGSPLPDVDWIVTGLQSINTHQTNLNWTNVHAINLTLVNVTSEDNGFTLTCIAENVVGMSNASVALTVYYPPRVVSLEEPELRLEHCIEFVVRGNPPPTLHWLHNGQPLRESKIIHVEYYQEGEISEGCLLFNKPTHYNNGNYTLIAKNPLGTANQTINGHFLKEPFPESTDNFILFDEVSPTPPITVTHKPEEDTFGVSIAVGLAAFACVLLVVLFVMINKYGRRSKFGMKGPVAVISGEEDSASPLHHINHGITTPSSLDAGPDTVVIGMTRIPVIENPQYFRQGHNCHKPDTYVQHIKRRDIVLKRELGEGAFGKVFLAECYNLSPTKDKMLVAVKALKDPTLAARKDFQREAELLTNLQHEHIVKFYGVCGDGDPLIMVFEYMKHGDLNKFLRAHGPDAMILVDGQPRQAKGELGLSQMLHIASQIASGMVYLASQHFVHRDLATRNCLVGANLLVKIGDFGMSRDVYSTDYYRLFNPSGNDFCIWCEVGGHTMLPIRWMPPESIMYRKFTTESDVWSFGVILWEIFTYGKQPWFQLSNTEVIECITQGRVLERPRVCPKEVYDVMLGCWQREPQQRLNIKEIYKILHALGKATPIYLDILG", "in_short": "as §2"}, "TSSK1B": {"molecular_target": "T37, TSSK1B (Homo sapiens, UniProt Q9BXA7)", "T37 construct": "purchased Eurofins DiscoverX KINOMEscan", "in_short": "as §1"}, "TSSK3": {"molecular_target": "T38, TSSK3 (Homo sapiens, UniProt Q96PN8)", "T38 construct": "purchased Eurofins DiscoverX KINOMEscan", "in_short": "as §1"}, "ULK2": {"molecular_target": "T39, ULK2 (Homo sapiens, UniProt Q8IYT8)", "T39 construct": "purchased Eurofins DiscoverX KINOMEscan", "in_short": "as §1"}}, "data": [{"smiles": "O=C1Nc2c(cc([N+](=O)[O-])c3c2CCCC3)C1=NO", "note": "[Compound 5d, 3-(Hydroxyimino)-5-nitro-1,3,6,7,8,9-hexahydro-2H-benzo[g]indol-2-one]", "values": [{"measurement": "inhibition at 10 µM", "setting": "ABL1 (T315I)-P", "value": 17, "unit": "%"}, {"measurement": "inhibition at 10 µM", "setting": "AMPK-α1", "value": 28, "unit": "%"}, {"measurement": "inhibition at 10 µM", "setting": "ASK1", "value": 50, "unit": "%"}, {"measurement": "inhibition at 10 µM", "setting": "CAMK2B", "value": 70, "unit": "%"}, {"measurement": "inhibition at 10 µM", "setting": "CAMKK1", "value": 9, "unit": "%"}, {"measurement": "inhibition at 10 µM", "setting": "CDK9", "value": 0, "unit": "%"}, {"measurement": "inhibition at 10 µM", "setting": "CDKL3", "value": 7, "unit": "%"}, {"measurement": "inhibition at 10 µM", "setting": "CSNK1D", "value": 79, "unit": "%"}, {"measurement": "inhibition at 10 µM", "setting": "EGFR (L861Q)", "value": 12, "unit": "%"}, {"measurement": "inhibition at 10 µM", "setting": "EGFR (T790M)", "value": 0, "unit": "%"}, {"measurement": "inhibition at 10 µM", "setting": "EPHA2", "value": 19, "unit": "%"}, {"measurement": "inhibition at 10 µM", "setting": "EPHA5", "value": 9, "unit": "%"}, {"measurement": "inhibition at 10 µM", "setting": "FGFR3", "value": 14, "unit": "%"}, {"measurement": "inhibition at 10 µM", "setting": "FYN", "value": 0, "unit": "%"}, {"measurement": "inhibition at 10 µM", "setting": "HUNK", "value": 0, "unit": "%"}, {"measurement": "inhibition at 10 µM", "setting": "JAK3 (JH1domain-cat.)", "value": 49, "unit": "%"}, {"measurement": "inhibition at 10 µM", "setting": "KIT", "value": 0, "unit": "%"}, {"measurement": "inhibition at 10 µM", "setting": "KIT (V559D)", "value": 0, "unit": "%"}, {"measurement": "inhibition at 10 µM", "setting": "LRRK2", "value": 96, "unit": "%"}, {"measurement": "inhibition at 10 µM", "setting": "LTK", "value": 64, "unit": "%"}, {"measurement": "inhibition at 10 µM", "setting": "LZK", "value": 0, "unit": "%"}, {"measurement": "inhibition at 10 µM", "setting": "MAP4K5", "value": 12, "unit": "%"}, {"measurement": "inhibition at 10 µM", "setting": "MELK", "value": 56, "unit": "%"}, {"measurement": "inhibition at 10 µM", "setting": "MLK3", "value": 31, "unit": "%"}, {"measurement": "inhibition at 10 µM", "setting": "MYLK", "value": 93.9, "unit": "%"}, {"measurement": "inhibition at 10 µM", "setting": "PIK3CA (E545A)", "value": 30, "unit": "%"}, {"measurement": "inhibition at 10 µM", "setting": "PIK3CA (Q546K)", "value": 40, "unit": "%"}, {"measurement": "inhibition at 10 µM", "setting": "PRKCD", "value": 10, "unit": "%"}, {"measurement": "inhibition at 10 µM", "setting": "PRKCI", "value": 49, "unit": "%"}, {"measurement": "inhibition at 10 µM", "setting": "[1]", "value": 26, "unit": "%"}, {"measurement": "inhibition at 10 µM", "setting": "SLK", "value": 63, "unit": "%"}, {"measurement": "inhibition at 10 µM", "setting": "SRPK3", "value": 66, "unit": "%"}, {"measurement": "inhibition at 10 µM", "setting": "STK16", "value": 72, "unit": "%"}, {"measurement": "inhibition at 10 µM", "setting": "TIE2", "value": 21, "unit": "%"}, {"measurement": "inhibition at 10 µM", "setting": "TLK2", "value": 0, "unit": "%"}, {"measurement": "inhibition at 10 µM", "setting": "TRKC", "value": 31, "unit": "%"}, {"measurement": "inhibition at 10 µM", "setting": "TSSK1B", "value": 0, "unit": "%"}, {"measurement": "inhibition at 10 µM", "setting": "TSSK3", "value": 61, "unit": "%"}, {"measurement": "inhibition at 10 µM", "setting": "ULK2", "value": 52, "unit": "%"}]}]}
